# Measurements as given in patent EP0696280B1, “SUBSTITUTED PYRROLIDIN-3-YL-ALKYL-PIPERIDINES USEFUL AS TACHYKININ ANTAGONISTS” (MERRELL PHARMACEUTICALS INC., priority 1993, dated 1994).
# System: SP-induced plasma protein extravasation
# Assay: Antagonism of SP-induced plasma protein extravasation in guinea pig trachea (Evans Blue dye)
# Type: in vivo
# Settings: Figure 2; i.v.; result in words
# Description: SP-induced protein leakage through postcapillary venules was assessed by measuring Evans Blue dye accumulation in guinea pig trachea. Animals were anesthetized with pentobarbital then injected with Evans Blue dye (20 mg/kg, i.v., prepared in 0.9% NaCl solution). One minute after dye administration, the antagonist was administered (i.v.) followed by SP (0.3 nmole/kg, i.v.) and, after 5 min, excess dye removed from the circulation by transcardiac perfusion with 50 ml 0.9% NaCl solution. The trachea and primary bronchi were removed, blotted dry and weighed. Dye quantitation was performed spectrophotometrically (620 nm) after extracting tissues in formamide for 24 hr at 50°C. Values were subtracted from background (dye only, no agonist). ED50 (dose of compound which inhibits SP-induced plasma protein extravasation by 50%) was calculated from linear regression analysis.
# Values are mean (95% confidence limits). Compounds were injected intravenously 2 min prior to SP administration. ED50 values are based on at least 3 doses; at least 4 animals were used per dose.
smiles,measurement,value
"COc1cc(C(=O)N2CCC(CCN3CCC(C(N)=O)(c4ccccc4)CC3)(c3ccc(Cl)c(Cl)c3)C2)cc(OC)c1OC (stereo not shown) [Example 3, 1-[2-[3-(3,4-dichloro-phenyl)-1-(3,4,5-trimethoxy-benzoyl)-pyrrolidin-3-yl]-ethyl]-4-phenyl-piperidine-4-carboxylic acid amide]",antagonism of SP-induced plasma protein extravasation in guinea pig trachea,dose related antagonism
